Patent US11371022B2, “Blood-brain barrier endothelial cells derived from pluripotent stem cells for blood-brain barrier models” (PRESIDENT AND FELLOWS OF HARVARD COLLEGE, priority 2016, dated 2022)

What was measured:
[1] = system: efflux pump; assay: DiOC2 permeability test of efflux pump function in BBB chip; format: in vitro ADME, human; conditions: hypoxia stimulation vs normoxia BBB chip; FIG. 9B
Source text: FIGS. 9A-9C are bar graphs showing the inhibition of the efflux transporter in control and hypoxic stimulated BBB chips by verapamil, MK-571 or KO143. […] All inhibitor-treated samples were independently normalized to the corresponding mock control.
A non-limiting example of assembling a BBB model in a microfluidic chip having flow, using the hypoxia differentiated PSCs-to-BMVECs is as follows. To assemble the BBB model on microfluidic chips, polydimethylsiloxane (PDMS) microfluidic chip was plasma treated (0.5 mbar, 50 W, 2 min) and coated with 0.01% poly-L-lysine solution for 1 hour. Subsequently, 400 ug/ml collagen IV and 100 μg/ml fibronectin were treated to microfluidic chips and incubated overnight in normal cell culture condition (37 C, 5% CO2, 20% O2). A day after coating, ECM solution was rinsed with EC+RA medium. The harvested astrocytes and pericytes were resuspended at 0.7 and 0.3 million cells/mL in EC+RA medium. Mixture of cells was seeded on apical micro-channel, and placed in incubator for 1 hour allowing the cells to adhere to membrane. The differentiated BMVECs on 6-cm plastic culture dish were dissociated using Accutase, harvested, and resuspended 25 million cells/mL in degassed EC+RA media. The differentiated BMVECs were seeded on basal micro-channel, and flip the entire PDMS chip upside down in petri dish to allow the BMVEC to attach to the membrane. […]

[2] = biological target: T1, ABCB1 (Homo sapiens, UniProt P08183); assay: Doxorubicin permeability across BBB chip with or without verapamil (efflux pump inhibition); format: in vitro ADME; conditions: FIG. 9C
T1 construct: The BBB model chip comprises iPSC-derived, hypoxia-stimulated or -differentiated BMVECs; endogenous in cells; host or cells: human iPSC (IMR90-4)-derived brain microvascular endothelial cells, co-cultured with astrocytes and pericytes on a microfluidic chip
T1 sequence (P08183 whole entry): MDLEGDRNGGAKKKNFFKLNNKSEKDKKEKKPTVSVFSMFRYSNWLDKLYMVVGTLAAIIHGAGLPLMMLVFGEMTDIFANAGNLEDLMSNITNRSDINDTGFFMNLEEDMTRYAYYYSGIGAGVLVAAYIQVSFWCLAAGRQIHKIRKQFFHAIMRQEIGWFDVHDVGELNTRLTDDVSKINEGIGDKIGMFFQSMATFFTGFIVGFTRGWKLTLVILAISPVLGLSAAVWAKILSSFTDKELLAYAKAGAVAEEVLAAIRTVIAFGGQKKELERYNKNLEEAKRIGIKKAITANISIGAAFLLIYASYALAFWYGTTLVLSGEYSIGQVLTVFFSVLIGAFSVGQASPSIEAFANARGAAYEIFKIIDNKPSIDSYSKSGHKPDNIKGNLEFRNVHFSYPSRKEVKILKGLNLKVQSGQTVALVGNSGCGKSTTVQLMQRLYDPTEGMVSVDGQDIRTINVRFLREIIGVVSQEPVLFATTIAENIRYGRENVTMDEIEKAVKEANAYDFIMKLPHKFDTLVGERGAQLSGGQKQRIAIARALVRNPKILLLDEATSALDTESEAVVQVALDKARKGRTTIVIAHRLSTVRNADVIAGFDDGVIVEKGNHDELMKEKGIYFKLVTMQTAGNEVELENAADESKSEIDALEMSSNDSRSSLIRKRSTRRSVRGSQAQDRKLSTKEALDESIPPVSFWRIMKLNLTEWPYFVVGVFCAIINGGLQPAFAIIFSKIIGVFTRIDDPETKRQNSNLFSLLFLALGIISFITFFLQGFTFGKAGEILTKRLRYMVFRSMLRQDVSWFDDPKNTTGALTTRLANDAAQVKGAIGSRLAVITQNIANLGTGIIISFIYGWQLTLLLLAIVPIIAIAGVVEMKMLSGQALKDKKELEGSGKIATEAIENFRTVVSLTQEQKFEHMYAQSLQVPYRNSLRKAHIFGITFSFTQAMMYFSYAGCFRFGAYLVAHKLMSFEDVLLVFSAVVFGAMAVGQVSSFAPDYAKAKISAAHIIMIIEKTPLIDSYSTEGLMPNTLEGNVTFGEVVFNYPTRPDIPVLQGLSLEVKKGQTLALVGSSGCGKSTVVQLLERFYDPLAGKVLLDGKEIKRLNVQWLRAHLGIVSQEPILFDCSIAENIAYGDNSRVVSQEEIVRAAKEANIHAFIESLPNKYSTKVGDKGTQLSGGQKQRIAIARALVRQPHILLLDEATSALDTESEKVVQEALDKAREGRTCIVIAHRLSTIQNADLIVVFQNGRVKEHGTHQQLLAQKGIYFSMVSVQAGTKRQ
Source text: Doxorubicin is known as a substrate of ABCB1.

[3] = biological target: T2, ABCB (P-gp) (Mus musculus, UniProt P21447); conditions: cited from earlier work
T2 construct: compared to in vivo efflux ratios (2.4-fold) (Cell, 1994, 77, 4)
T2 sequence (P21447 whole entry): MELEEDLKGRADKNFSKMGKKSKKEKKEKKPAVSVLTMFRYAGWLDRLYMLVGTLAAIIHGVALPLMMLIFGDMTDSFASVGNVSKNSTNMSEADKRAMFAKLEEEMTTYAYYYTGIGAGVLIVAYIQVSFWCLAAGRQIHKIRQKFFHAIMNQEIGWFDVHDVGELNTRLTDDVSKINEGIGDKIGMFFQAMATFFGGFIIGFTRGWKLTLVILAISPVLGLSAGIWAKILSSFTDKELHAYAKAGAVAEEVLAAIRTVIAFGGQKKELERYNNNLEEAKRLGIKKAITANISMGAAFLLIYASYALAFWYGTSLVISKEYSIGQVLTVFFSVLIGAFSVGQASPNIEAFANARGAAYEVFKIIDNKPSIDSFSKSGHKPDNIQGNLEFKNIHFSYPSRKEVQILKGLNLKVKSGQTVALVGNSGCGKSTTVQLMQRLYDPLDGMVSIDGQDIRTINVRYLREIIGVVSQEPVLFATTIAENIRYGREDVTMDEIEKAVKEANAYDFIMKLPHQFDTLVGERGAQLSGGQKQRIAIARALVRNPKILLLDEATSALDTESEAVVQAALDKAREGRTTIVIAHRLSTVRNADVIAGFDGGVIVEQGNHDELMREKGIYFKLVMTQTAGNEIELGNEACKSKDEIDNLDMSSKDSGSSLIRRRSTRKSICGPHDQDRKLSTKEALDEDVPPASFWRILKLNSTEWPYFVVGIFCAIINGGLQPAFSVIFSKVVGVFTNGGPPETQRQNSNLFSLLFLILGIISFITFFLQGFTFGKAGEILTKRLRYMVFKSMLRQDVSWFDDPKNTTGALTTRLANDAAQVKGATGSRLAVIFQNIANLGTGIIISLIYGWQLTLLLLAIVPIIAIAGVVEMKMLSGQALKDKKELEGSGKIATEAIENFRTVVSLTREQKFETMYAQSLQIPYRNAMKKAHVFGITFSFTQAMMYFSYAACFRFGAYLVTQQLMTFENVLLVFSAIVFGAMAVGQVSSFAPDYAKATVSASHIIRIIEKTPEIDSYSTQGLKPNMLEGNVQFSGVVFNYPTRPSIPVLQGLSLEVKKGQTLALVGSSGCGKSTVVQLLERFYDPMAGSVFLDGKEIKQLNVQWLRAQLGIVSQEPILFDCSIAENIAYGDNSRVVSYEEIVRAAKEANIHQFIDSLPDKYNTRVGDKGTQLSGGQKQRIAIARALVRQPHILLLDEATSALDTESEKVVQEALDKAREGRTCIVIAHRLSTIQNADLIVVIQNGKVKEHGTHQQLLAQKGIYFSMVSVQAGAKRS

[4] = biological target: T3, ABCB (P-gp) (Homo sapiens, UniProt P08183); conditions: iPS-derived BMVEC generated using published protocol, in vitro; cited from earlier work
T3 construct: host or cells: iPS-derived BMVEC (published protocol)
T3 sequence (P08183 whole entry): as the sequence (P08183 whole entry) above

Compound | efflux pump function in DiO2 test [1] | doxorubicin permeability, increase by verapamil treatment ([2]; hypoxia BBB chip, verapamil (ABCB1 inhibitor) vs mock control) [fold] | change of doxorubicin BBB penetration by verapamil ([2]; normoxia control BBB chip) | in vivo efflux ratios [3] [fold] | efflux ratio [4] [fold]
CCN1/C(=C/C=C/c2oc3ccccc3[n+]2CC)Oc2ccccc21.[I-] [DiO2] | enhanced efflux pump function |  |  |  | 
COc1cccc2c1C(=O)c1c(O)c3c(c(O)c1C2=O)C[C@@](O)(C(=O)CO)C[C@@H]3O[C@H]1C[C@H](N)[C@H](O)[C@H](C)O1 [Doxorubicin, doxorubicin] |  | 2.7 | did not show significant change | 2.4 | 1.3
